Experiments:
[1] = molecular target: T1, mTOR (Homo sapiens, UniProt P42345); test: mTOR kinobeads assay (competition binding in cell lysate, dot blot detection); conditions: 1:1 mix of Jurkat and Ramos cell lysates, read-out: Inhibition values (IC50 in μM) as determined in the kinobeads assay, mTor
T1 construct: endogenous in cells; host or cells: Jurkat (ATCC TIB-152, clone E6-1) and Ramos (ATCC CRL-1596), 1:1 lysate mix
Protocol: Determination of the Effect of the Compounds According to the Invention on mTOR
(§1) The compounds of the present invention as described were tested in the mTOR kinobeads assay as described below. Briefly, test compounds (at various concentrations) and the affinity matrix (1:1 mixture of beads with immobilized phenylthiazole ligand 1 and beads with immobilized phenylmorpholin-chromen ligand; WO 2009/098021) were added to cell lysate aliquots and allowed to bind to the proteins in the lysate sample. After the incubation time the beads with captured proteins were separated from the lysate. Bound proteins were then eluted and the presence of mTOR, PI3Kα, PI3Kβ, PI3Kγ, PI3Kδ and DNA-dependent protein kinase (DNA-PK) was detected and quantified using a specific antibody in a dot blot procedure and the Odyssey infrared detection system. Dose response curves for individual kinases were generated and IC50 values calculated. Kinobeads assays for PI3 kinases (WO-A 2008/015013) and for kinase selectivity profiling (WO 2009/098021) have been previously described.
(§2) Washing of Affinity Matrix
(§3) The affinity matrix was washed two times with 15 ml of 1×DP buffer containing 0.2% NP40 (IGEPAL® CA-630, Sigma, #13021) and then resupended in 5.5 ml of 1×DP buffer containing 0.2% NP40 (10% beads slurry).
(§4) 5×DP buffer: 250 mM Tris-HCl pH 7.4, 25% Glycerol, 7.5 mM MgCl2, 750 mM NaCl, 5 mM Na3VO4, filter the 5×-lysis buffer through 0.22 μm filter and store in aliquots at −80° C. The 5×DP buffer is diluted to 1×DP buffer containing 1 mM DTT and 25 mM NaF.
(§5) Preparation of Test Compounds
(§6) Stock solutions of test compounds were prepared in DMSO. In a 96 well plate 30 μl solution of diluted test compounds at 5 mM in DMSO were prepared. Starting with this solution a 1:3 dilution series (9 steps) was prepared. For control experiments (no test compound) a buffer containing 2% DMSO was used. Compound Pi-103 (Calbiochem catalogue number 528100) served as a positive control.
(§7) Cell Culture and Preparation of Cell Lysates
(§8) Jurkat cells (ATCC catalogue number TIB-152 Jurkat, clone E6-1) and Ramos cells (ATCC number CRL-1596) were grown in 1 litre Spinner flasks (Integra Biosciences, #182101) in suspension in RPMI 1640 medium (Invitrogen, #21875-034) supplemented with 10% Fetal Bovine Serum (Invitrogen) at a density between 0.15×10^6 and 1.2×10^6 cells/ml. Cells were harvested by centrifugation, washed once with 1×PBS buffer (Invitrogen, #14190-094) and cell pellets were frozen in liquid nitrogen and subsequently stored at −80° C.
(§9) Cells were homogenized in a Potter S homogenizer in lysis buffer: 50 mM Tris-HCl, 0.8% NP40, 5% glycerol, 150 mM NaCl, 1.5 mM MgCl2, 25 mM NaF, 1 mM sodium vanadate, 1 mM DTT, pH 7.5. One complete EDTA-free tablet (protease inhibitor cocktail, Roche Diagnostics, 1873580) per 25 ml buffer was added. The material was dounced 10 times using a mechanized POTTER S, transferred to 50 ml falcon tubes, incubated for 30 minutes on ice and spun down for 10 min at 20,000 g at 4° C. (10,000 rpm in Sorvall SLA600, precooled). The supernatant was transferred to an ultracentrifuge (UZ)-polycarbonate tube (Beckmann, 355654) and spun for 1 hour at 100.000 g at 4° C. (33.500 rpm in Ti50.2, precooled). The supernatant was transferred again to a fresh 50 ml falcon tube, the protein concentration was determined by a Bradford assay (BioRad) and samples containing 50 mg of protein per aliquot were prepared. The samples were immediately used for experiments or frozen in liquid nitrogen and stored frozen at −80° C.
(§10) Cell lysate (approximately 50 mg protein per plate) was thawed in a water bath at room temperature and then kept on ice. To the thawed cell lysate 1×DP 0.8% NP40 buffer containing protease inhibitors (1 tablet for 25 ml buffer; EDTA-free protease inhibitor cocktail; Roche Diagnostics 1873580) was added in order to reach a final protein concentration of 5 mg/ml total protein. For the kinobeads experiment a 1:1 mix of Jurkat and Ramos cell lysates was used. […]

[2] = molecular target: T2, PI3Kα (Homo sapiens, UniProt P42336); test: kinobeads assay, PI3Kα; format: binding; conditions: 1:1 mix of Jurkat and Ramos cell lysates, read-out: Inhibition values (IC50 in μM) as determined in the kinobeads assay, PI3Kα
T2 construct: endogenous in cells; host or cells: Jurkat (ATCC TIB-152, clone E6-1) and Ramos (ATCC CRL-1596), 1:1 lysate mix
Protocol: as §1, §2, §3, §4, §5, §6, §7, §8, §9
as §10, with “used. The diluted cell lysate was stored on ice.” for “used.”

[3] = molecular target: T3, PI3Kβ (Homo sapiens, UniProt P42338); test: kinobeads assay, PI3Kβ; format: binding; conditions: 1:1 mix of Jurkat and Ramos cell lysates, read-out: Inhibition values (IC50 in μM) as determined in the kinobeads assay, PI3Kβ
T3 construct: endogenous in cells; host or cells: Jurkat (ATCC TIB-152, clone E6-1) and Ramos (ATCC CRL-1596), 1:1 lysate mix
Protocol: as §1, §2, §3, §4, §5, §6, §7, §8, §9
as §10, with “used. The diluted cell lysate was stored on ice.” for “used.”

[4] = molecular target: T4, PI3Kδ (Homo sapiens, UniProt O00329); test: kinobeads assay, PI3Kδ; format: binding; conditions: 1:1 mix of Jurkat and Ramos cell lysates, read-out: Inhibition values (IC50 in μM) as determined in the kinobeads assay, PI3Kδ
T4 construct: endogenous in cells; host or cells: Jurkat (ATCC TIB-152, clone E6-1) and Ramos (ATCC CRL-1596), 1:1 lysate mix
Protocol: as §1, §2, §3, §4, §5, §6, §7, §8, §9
as §10, with “used. The diluted cell lysate was stored on ice.” for “used.”

[5] = molecular target: T5, PI3Kγ (Homo sapiens, UniProt P48736); test: kinobeads assay, PI3Kγ; format: binding; conditions: 1:1 mix of Jurkat and Ramos cell lysates, read-out: Inhibition values (IC50 in μM) as determined in the kinobeads assay, PI3Kγ
T5 construct: endogenous in cells; host or cells: Jurkat (ATCC TIB-152, clone E6-1) and Ramos (ATCC CRL-1596), 1:1 lysate mix
Protocol: as §1, §2, §3, §4, §5, §6, §7, §8, §9
as §10, with “used. The diluted cell lysate was stored on ice.” for “used.”

[6] = molecular target: T6, DNA-dependent protein kinase (DNA-PK) (Homo sapiens, UniProt P78527); test: kinobeads assay, DNA-PK; format: binding; conditions: 1:1 mix of Jurkat and Ramos cell lysates, read-out: Inhibition values (IC50 in μM) as determined in the kinobeads assay, DNA-PK
T6 construct: endogenous in cells; host or cells: Jurkat (ATCC TIB-152, clone E6-1) and Ramos (ATCC CRL-1596), 1:1 lysate mix
Protocol: as §1, §2, §3, §4, §5, §6, §7, §8, §9
as §10, with “used. The diluted cell lysate was stored on ice.” for “used.”

T5 sequence (P48736 whole entry): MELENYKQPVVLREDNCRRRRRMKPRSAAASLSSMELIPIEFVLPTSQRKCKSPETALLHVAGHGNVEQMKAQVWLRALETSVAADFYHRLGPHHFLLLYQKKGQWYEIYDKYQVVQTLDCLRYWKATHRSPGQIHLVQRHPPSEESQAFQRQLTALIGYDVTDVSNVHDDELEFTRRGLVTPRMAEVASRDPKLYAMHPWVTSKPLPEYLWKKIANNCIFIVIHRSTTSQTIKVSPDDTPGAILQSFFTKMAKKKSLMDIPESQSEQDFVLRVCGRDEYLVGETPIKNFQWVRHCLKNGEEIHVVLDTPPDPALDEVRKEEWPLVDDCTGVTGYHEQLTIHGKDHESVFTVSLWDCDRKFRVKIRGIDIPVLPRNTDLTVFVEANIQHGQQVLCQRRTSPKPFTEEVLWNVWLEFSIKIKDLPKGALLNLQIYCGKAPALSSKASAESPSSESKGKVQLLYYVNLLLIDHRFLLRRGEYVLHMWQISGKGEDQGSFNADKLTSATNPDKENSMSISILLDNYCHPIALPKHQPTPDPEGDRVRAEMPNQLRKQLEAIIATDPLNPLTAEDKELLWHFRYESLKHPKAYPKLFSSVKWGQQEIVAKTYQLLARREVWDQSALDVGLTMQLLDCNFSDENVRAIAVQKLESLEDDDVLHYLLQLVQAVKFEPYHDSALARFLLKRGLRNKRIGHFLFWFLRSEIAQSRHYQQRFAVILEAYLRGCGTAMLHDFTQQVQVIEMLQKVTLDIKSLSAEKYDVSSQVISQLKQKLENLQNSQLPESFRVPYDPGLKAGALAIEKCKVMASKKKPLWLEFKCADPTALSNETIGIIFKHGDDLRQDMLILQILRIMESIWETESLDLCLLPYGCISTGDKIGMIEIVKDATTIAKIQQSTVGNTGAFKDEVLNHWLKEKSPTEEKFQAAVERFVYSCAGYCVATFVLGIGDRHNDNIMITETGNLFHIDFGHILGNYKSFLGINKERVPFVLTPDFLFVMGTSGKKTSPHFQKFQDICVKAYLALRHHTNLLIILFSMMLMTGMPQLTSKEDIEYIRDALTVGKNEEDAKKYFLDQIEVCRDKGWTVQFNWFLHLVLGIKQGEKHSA
T4 sequence (O00329 whole entry): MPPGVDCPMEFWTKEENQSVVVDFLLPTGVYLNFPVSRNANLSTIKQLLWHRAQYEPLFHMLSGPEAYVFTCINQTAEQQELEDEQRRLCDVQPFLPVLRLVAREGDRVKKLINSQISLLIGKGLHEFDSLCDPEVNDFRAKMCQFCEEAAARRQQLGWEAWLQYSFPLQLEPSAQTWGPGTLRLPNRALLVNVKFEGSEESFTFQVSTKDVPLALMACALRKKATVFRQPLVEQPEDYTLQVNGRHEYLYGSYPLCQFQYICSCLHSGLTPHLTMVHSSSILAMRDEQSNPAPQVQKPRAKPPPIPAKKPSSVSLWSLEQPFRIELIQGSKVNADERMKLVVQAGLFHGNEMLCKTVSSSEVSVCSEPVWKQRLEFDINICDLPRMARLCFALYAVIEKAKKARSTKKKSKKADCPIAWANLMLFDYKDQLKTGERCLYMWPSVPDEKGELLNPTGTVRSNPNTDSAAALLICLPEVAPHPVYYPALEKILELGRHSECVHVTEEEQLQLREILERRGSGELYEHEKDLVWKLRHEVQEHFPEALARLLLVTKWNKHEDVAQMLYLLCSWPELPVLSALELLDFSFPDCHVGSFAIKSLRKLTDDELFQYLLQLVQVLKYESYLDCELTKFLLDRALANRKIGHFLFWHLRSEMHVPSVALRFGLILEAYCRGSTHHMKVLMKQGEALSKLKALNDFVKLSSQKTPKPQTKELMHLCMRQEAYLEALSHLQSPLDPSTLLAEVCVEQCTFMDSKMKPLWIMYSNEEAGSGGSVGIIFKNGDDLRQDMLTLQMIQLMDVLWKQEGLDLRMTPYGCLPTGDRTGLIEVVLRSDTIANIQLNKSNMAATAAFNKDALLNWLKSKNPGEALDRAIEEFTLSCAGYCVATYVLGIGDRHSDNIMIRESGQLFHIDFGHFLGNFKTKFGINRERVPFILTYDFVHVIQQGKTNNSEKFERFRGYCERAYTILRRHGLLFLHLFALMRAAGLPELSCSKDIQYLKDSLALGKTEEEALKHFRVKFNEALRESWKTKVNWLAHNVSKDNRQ
T4 sequence (P27986 whole entry partner): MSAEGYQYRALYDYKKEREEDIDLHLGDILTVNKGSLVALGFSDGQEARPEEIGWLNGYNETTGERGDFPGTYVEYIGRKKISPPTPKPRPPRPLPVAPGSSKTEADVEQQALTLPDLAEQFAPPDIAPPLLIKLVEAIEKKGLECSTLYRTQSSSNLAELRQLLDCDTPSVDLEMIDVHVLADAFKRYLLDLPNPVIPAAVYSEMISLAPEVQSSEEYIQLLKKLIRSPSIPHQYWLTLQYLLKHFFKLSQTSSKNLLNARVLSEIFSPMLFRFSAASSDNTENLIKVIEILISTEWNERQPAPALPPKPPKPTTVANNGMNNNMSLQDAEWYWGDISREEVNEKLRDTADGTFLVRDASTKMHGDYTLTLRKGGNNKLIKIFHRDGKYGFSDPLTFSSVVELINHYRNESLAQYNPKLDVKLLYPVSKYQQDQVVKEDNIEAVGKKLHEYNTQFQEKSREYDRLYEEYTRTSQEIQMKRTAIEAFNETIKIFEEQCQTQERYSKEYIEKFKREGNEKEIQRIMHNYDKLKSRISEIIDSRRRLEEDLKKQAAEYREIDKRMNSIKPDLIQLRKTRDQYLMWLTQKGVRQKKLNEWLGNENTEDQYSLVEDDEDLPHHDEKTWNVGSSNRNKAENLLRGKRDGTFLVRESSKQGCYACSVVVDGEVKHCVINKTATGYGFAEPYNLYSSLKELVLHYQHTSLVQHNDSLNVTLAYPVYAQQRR
T3 sequence (P42338 whole entry): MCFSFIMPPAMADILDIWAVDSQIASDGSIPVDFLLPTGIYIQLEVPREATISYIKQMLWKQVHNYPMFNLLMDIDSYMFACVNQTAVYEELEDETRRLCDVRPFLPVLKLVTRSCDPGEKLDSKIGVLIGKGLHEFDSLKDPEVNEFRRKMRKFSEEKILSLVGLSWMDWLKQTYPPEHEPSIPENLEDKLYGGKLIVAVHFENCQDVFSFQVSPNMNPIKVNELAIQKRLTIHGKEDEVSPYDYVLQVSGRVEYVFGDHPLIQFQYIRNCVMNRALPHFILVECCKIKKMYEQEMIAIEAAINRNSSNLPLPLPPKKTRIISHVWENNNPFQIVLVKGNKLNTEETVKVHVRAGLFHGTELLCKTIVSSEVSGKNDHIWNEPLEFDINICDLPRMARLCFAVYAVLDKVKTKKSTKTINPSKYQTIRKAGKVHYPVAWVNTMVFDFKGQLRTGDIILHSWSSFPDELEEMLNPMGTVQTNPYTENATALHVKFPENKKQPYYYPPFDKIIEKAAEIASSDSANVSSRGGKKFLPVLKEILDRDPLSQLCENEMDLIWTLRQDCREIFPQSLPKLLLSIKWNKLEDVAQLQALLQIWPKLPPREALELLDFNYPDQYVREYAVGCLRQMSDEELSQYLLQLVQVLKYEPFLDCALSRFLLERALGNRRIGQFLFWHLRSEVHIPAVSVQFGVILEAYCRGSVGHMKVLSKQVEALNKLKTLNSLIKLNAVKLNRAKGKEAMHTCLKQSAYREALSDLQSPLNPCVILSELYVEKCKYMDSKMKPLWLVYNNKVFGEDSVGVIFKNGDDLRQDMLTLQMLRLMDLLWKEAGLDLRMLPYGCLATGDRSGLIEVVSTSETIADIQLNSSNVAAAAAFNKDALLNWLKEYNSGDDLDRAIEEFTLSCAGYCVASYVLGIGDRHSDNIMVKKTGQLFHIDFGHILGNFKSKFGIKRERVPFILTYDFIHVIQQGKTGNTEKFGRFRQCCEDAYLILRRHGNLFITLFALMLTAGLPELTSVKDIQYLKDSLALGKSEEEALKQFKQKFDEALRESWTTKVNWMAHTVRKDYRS
T3 sequence (P27986 whole entry partner): as the sequence (P27986 whole entry partner) above
T2 sequence (P42336 whole entry): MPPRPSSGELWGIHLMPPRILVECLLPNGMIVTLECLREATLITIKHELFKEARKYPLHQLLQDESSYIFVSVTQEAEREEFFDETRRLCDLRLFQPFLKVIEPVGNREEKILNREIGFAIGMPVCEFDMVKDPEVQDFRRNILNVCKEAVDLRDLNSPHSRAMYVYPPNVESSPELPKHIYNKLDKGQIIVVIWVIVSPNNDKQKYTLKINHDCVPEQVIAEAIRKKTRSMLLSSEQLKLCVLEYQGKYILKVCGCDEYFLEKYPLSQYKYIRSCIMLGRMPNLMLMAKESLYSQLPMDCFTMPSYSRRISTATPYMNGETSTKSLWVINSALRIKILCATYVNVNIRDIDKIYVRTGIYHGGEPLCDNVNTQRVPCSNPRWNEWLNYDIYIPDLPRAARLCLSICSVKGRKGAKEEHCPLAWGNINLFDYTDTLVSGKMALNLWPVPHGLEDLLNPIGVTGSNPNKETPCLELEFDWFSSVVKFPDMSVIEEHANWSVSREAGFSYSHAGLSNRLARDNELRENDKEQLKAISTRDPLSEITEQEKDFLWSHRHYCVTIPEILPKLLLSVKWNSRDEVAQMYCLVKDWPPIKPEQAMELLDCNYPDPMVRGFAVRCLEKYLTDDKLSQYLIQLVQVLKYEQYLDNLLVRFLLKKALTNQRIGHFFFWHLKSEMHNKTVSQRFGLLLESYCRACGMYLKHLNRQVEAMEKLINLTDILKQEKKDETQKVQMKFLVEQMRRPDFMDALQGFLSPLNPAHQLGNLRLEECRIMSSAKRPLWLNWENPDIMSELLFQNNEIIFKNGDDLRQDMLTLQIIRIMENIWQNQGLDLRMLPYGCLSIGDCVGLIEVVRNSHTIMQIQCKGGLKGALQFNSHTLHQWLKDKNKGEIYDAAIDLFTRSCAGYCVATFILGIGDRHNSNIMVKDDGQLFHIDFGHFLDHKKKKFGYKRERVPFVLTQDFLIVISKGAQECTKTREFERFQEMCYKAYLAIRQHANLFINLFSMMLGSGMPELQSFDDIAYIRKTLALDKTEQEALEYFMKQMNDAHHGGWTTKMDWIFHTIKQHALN
T2 sequence (P27986 whole entry partner): as the sequence (P27986 whole entry partner) above

Row | Structure (SMILES) | IC50 [1] [µM] | IC50 [2] [µM] | IC50 [3] [µM] | IC50 [4] [µM] | IC50 [5] [µM] | IC50 [6] [µM]
1 | C[C@H]1COCCN1c1nc2c(c(-c3ccc(NC(=O)NC4CC4)cc3)n1)CNC2 [Example 1, (S)-1-cyclopropyl-3-(4-(2-(3-methylmorpholino)-6,7-dihydro-5H-pyrrolo[3,4-d]pyrimidin-4-yl)phenyl)urea] | 0.1 to 1 | 10 to 100 | 10 to 100 | 10 to 100 | 10 to 100 | > 100
2 | CCNC(=O)Nc1ccc(-c2nc(N3CCOC[C@@H]3C)nc3c2CNC3)cc1 [Example 2, (S)-1-ethyl-3-(4-(2-(3-methylmorpholino)-6,7-dihydro-5H-pyrrolo[3,4-d]pyrimidin-4-yl)phenyl)urea] | 0.1 to 1 | 10 to 100 | 10 to 100 | 10 to 100 | 10 to 100 | 10 to 100
3 | CCNC(=O)Nc1ccc(-c2nc(N3CCOC[C@@H]3C)nc3c2CN(C=O)C3)cc1 [Example 3, (S)-1-ethyl-3-(4-(6-formyl-2-(3-methylmorpholino)-6,7-dihydro-5H-pyrrolo[3,4-d]pyrimidin-4-yl)phenyl)urea] | 0.1 to 1 | 10 to 100 | 10 to 100 | 10 to 100 | 10 to 100 | > 100
4 | CCNC(=O)Nc1ccc(-c2nc(N3CCOCC3)nc3c2CNC3)cc1 [Example 4, 1-ethyl-3-(4-(2-morpholino-6,7-dihydro-5H-pyrrolo[3,4-d]pyrimidin-4-yl)phenyl)urea] | 0.1 to 1 | 1 to 10 | 10 to 100 | 10 to 100 | 10 to 100 | 10 to 100
5 | O=C(Nc1ccc(-c2nc(N3CCOCC3)nc3c2CNC3)cc1)NC1CC1 [Example 5, 1-cyclopropyl-3-(4-(2-morpholino-6,7-dihydro-5H-pyrrolo[3,4-d]pyrimidin-4-yl)phenyl)urea] | 0.1 to 1 | 10 to 100 | 10 to 100 | 10 to 100 | 10 to 100 | 10 to 100
6 | NC(=O)Nc1ccc(-c2nc(N3CCOCC3)nc3c2CNC3)cc1 [Example 6, 1-(4-(2-morpholino-6,7-dihydro-5H-pyrrolo[3,4-d]pyrimidin-4-yl)phenyl)urea] | 0.1 to 1 | 1 to 10 | 1 to 10 | 1 to 10 | 1 to 10 | 10 to 100
7 | CCNC(=O)Nc1ccc(-c2nc(N3CCOCC3)nc3c2CN(C(=O)OCC)C3)cc1 [Example 7, ethyl 4-(4-(3-ethylureido)phenyl)-2-morpholino-5H-pyrrolo[3,4-d]pyrimidine-6(7H)-carboxylate] | 1 to 10 | > 100 | > 100 | > 100 | > 100 | > 100
8 | CCNC(=O)Nc1ccc(-c2nc(N3CCOC[C@@H]3C)nc3c2CN(C(=O)OCC)C3)cc1 [Example 8, (S)-ethyl 4-(4-(3-ethylureido)phenyl)-2-(3-methylmorpholino)-5H-pyrrolo[3,4-d]pyrimidine-6(7H)-carboxylate] | 10 to 100 | > 100 | > 100 | > 100 | > 100 | > 100
9 | CCOC(=O)N1Cc2nc(N3CCOC[C@@H]3C)nc(-c3ccc(NC(=O)NC4CC4)cc3)c2C1 [Example 9, (S)-ethyl 4-(4-(3-cyclopropylureido)phenyl)-2-(3-methylmorpholino)-5H-pyrrolo[3,4-d]pyrimidine-6(7H)-carboxylate] | 1 to 10 | > 100 | > 100 | > 100 | > 100 | > 100
10 | CCOC(=O)Nc1ccc(-c2nc(N3CCOC[C@@H]3C)nc3c2CNC3)cc1 [Example 10, (S)-ethyl (4-(2-(3-methylmorpholino)-6,7-dihydro-5H-pyrrolo[3,4-d]pyrimidin-4-yl)phenyl)carbamate] | 10 to 100 | 10 to 100 | > 100 | > 100 | > 100 | > 100
11 | C[C@H]1COCCN1c1nc2c(c(-c3ccc(NC(=O)NC4CC4)cc3)n1)CN(C)C2 [Example 11, (S)-1-cyclopropyl-3-(4-(6-methyl-2-(3-methylmorpholino)-6,7-dihydro-5H-pyrrolo[3,4-d]pyrimidin-4-yl)phenyl)urea] | 0.1 to 1 | 10 to 100 | 10 to 100 | 10 to 100 | 10 to 100 | 10 to 100
12 | CC(=O)N1Cc2nc(N3CCOC[C@@H]3C)nc(-c3ccc(NC(=O)NC4CC4)cc3)c2C1 [Example 12, (S)-1-(4-(6-acetyl-2-(3-methylmorpholino)-6,7-dihydro-5H-pyrrolo[3,4-d]pyrimidin-4-yl)phenyl)-3-cyclopropylurea] | 1 to 10 | 10 to 100 | 10 to 100 | 10 to 100 | > 100 | > 100
13 | CC(C)N1Cc2nc(N3CCOC[C@@H]3C)nc(-c3ccc(NC(=O)NC4CC4)cc3)c2C1 [Example 13, (S)-1-cyclopropyl-3-(4-(6-isopropyl-2-(3-methylmorpholino)-6,7-dihydro-5H-pyrrolo[3,4-d]pyrimidin-4-yl)phenyl)urea] | 0.1 to 1 | > 100 | > 100 | > 100 | > 100 | > 100
14 | C[C@H]1COCCN1c1nc2c(c(-c3ccc(NC(=O)NC4CC4)cc3)n1)CN(C1CC1)C2 [Example 14, (S)-1-cyclopropyl-3-(4-(6-cyclopropyl-2-(3-methylmorpholino)-6,7-dihydro-5H-pyrrolo[3,4-d]pyrimidin-4-yl)phenyl)urea] | 1 to 10 | > 100 | > 100 | > 100 | > 100 | > 100
